Measured values as given in patent US5346897A, “Agents for potentiating the effects of antitumor agents and combating multiple drug resistance” (Burroughs Wellcome Co., priority 1992, dated 1994).
Read-outs that look alike come from different tables or passages of the source. *1 amine or outer side, *2 acyl side, *3 side chain or, on linkers, in order; H or OH if unused. Where a SMILES comes first, the peptide text is derived from it. Bridges are numbered along the chain shown (N, C = ends). Roman numbers before positions name the chains, in order. [ ]: non-standard residue; d: D form. Actinocin(9to1) = Cc1c2oc3c(C)ccc(C(=O)[*:1])c3nc-2c(C(=O)[*:2])c(N)c1=O; NMeV = CN[C@H](C(=O)O)C(C)C; Sar = CNCC(=O)O

Key:
[1] = test system: resistant sublines of murine leukemia cells; conditions: Tsuruo et al., Cancer Res.; cited from earlier work
[2] = test system: Chinese hamster ovary (CHO) tissue culture cells (AuxB1 and C5S32); assay: Cytotoxicity of Actinomycin D alone in Chinese hamster ovary cells (AuxB1 and C5S32); format: cell-based
[3] = In vitro cytotoxicity of potentiating agents in Chinese hamster ovary cells, multidrug resistant C5S32 line, MTT; format: cell-based; conditions: hamster, c5s32 cho cells, C5S32 drug resistant, no Act D, untreated = 1.00, read-out: Normalized absorbance (cell survival), potentiating agent alone, fraction of untreated culture
[4] = test system: C5S32 Chinese hamster ovary cells (drug resistant); assay: as above; format: cell-based; conditions: 96 h, Act D alone = 1.00
[5] = test system: KB V-1 human epidermoid carcinoma cells (drug resistant); assay: In vitro cytotoxicity of potentiating agents in human KB epidermoid carcinoma cells, drug resistant KB V-1, MTT; conditions: KB V-1 drug resistant, 96 h, Act D alone = 1.00
Experimental: (§1) The procedure for assaying the cytotoxicity of potentiating agents with human KB epidermoid carcinoma cells is essentially the same as the assay procedure described above for use with Chinese hamster ovary cells. […] After 48 hours of incubation at 37° C., the media is changed and cells are treated with actinomycin D at 0.1 nM (3-1) or 20 nM (V-i). The test potentiating agent is introduced to one-half the untreated cultures and onehalf the Act D treated cultures at 1 and 10 μM. After 96 hours of additional incubation at 37° C, 0.5 mg/ml MTT dye is added, the cells are incubated for three hours, after which the cells are dissolved in DMSO, and the absorbance is then read at 570 nm.

[6] = as above; conditions: human, kb v-1 cells
Experimental: as §1

in vitro [7] = conditions: human, kb 3-1 cells
Experimental: as §1

[8] = test system: KB 3-1 human epidermoid carcinoma cells (wildtype); conditions: kb 3-1 cells, 96 h
Experimental: as §1

[9] = test system: AuxB1 Chinese hamster ovary cells (wildtype); assay: in vitro; format: cell-based; conditions: auxb1 cho cells, 96 h
in vitro [10] = format: cell-based, Chinese hamster; conditions: hamster, auxb1 cho cells

CN(C)CCCN1c2ccccc2CCc2ccc(Cl)cc21 [clomipramine]
enhancement of the activity of antitumor agents against resistant sublines of murine leukemia cells [1]: enhance the activity of antitumor agents

C=C[C@H]1C[N@@]2CC[C@H]1C[C@@H]2[C@@H](O)c1ccnc2ccc(OC)cc12 [quinidine]
enhancement of the activity of antitumor agents against resistant sublines of murine leukemia cells [1]: enhance the activity of antitumor agents

Cc1c2oc3c(C)ccc(C(=O)N[C@@H]4C(=O)N[C@H](C(C)C)C(=O)N5CCC[C@H]5C(=O)N(C)CC(=O)N(C)[C@@H](C(C)C)C(=O)O[C@@H]4C)c3nc-2c(C(=O)N[C@@H]2C(=O)N[C@H](C(C)C)C(=O)N3CCC[C@H]3C(=O)N(C)CC(=O)N(C)[C@@H](C(C)C)C(=O)O[C@@H]2C)c(N)c1=O [Actinomycin D] (I: T[dV]P[Sar][NMeV] / II: T[dV]P[Sar][NMeV]; ester I:1-I:C, II:1-II:C; linker I:N-II:N via Actinocin(9to1))
reduction in cell number below the value of completely untreated cultures ([2]; Act D alone (0.01 μM AuxB1, 0.5 μM C5S32), in most experiments): 10-20% | resistance of C5S32 cells to Actinomycin D compared to the parental AuxB1 cell line ([2]; C5S32 vs AuxB1): about 200 fold

COC(=O)C1=C(C)NC(C)=C(C(=O)OCCN(C)Cc2ccccc2)C1c1cccc([N+](=O)[O-])c1 (stereo not shown) [nicardipine]
enhancement of the activity of antitumor agents against resistant sublines of murine leukemia cells [1]: enhance the activity of antitumor agents

COc1ccc(CCN(C)CCCC(C#N)(c2ccc(OC)c(OC)c2)C(C)C)cc1OC (stereo not shown) [Verapamil]
enhancement of the activity of antitumor agents against resistant sublines of murine leukemia cells [1]: enhance the activity of antitumor agents

CCOC(=O)/C=C/c1cccc(/C(=C/CN2CCCC2)c2ccc(C)cc2)n1 [Compound (B), Ethyl (E)-3-{6-[3-pyrrolidino-l-(4-tolyl)prop-lE-enyl]-2-pyridyl}acrylate]
viability at 96 h, 1 µM ([3]; potentiating agent 1 μM): 77% | viability at 96 h, 10 µM ([3]; potentiating agent 10 μM): 52% | Normalized absorbance (cell survival), potentiating agent + Act D, fraction of Act D alone ([4]; potentiating agent 1 μM + Act D 0.5 μM): 0.63 | Normalized absorbance (cell survival), potentiating agent + Act D, fraction of Act D alone ([4]; potentiating agent 10 μM + Act D 0.5 μM): 0.14 | Normalized absorbance (cell survival), potentiating agent + Act D, fraction of Act D alone ([5]; potentiating agent 1 μM + actinomycin D 20 nM): 0.48 | Normalized absorbance (cell survival), potentiating agent + Act D, fraction of Act D alone ([5]; potentiating agent 10 μM + actinomycin D 20 nM): 0.04 | viability at 96 h, 1 µM [6]: 36% | viability at 96 h, 10 µM [6]: 14% | viability at 96 h, 1 µM (in vitro [7]): 58% | viability at 96 h, 10 µM (in vitro [7]): 37% | Normalized absorbance (cell survival), potentiating agent + Act D, fraction of Act D alone ([8]; 1 µM): 0.55 | Normalized absorbance (cell survival), potentiating agent + Act D, fraction of Act D alone ([8]; 10 µM): 0.45 | Normalized absorbance (cell survival), potentiating agent + Act D, fraction of Act D alone ([9]; 1 µM): 0.63 | Normalized absorbance (cell survival), potentiating agent + Act D, fraction of Act D alone ([9]; 10 µM): 0.29 | viability at 96 h, 1 µM (in vitro [10]): 92% | viability at 96 h, 10 µM (in vitro [10]): 93%

CN1CCN(CCCN2c3ccccc3Sc3ccc(C(F)(F)F)cc32)CC1 [trifluoperazine]
enhancement of the activity of antitumor agents against resistant sublines of murine leukemia cells [1]: enhance the activity of antitumor agents

CCN(CC)CCn1c(=O)c(Cc2ccc(OC)cc2)nc2ccccc21 [caroverine]
enhancement of the activity of antitumor agents against resistant sublines of murine leukemia cells [1]: enhance the activity of antitumor agents

COc1ccc([C@@H]2Sc3ccccc3N(CCN(C)C)C(=O)[C@@H]2OC(C)=O)cc1 [diltiazem]
enhancement of the activity of antitumor agents against resistant sublines of murine leukemia cells [1]: enhance the activity of antitumor agents
